In patent US20250163104A1, “MACROCYCLIC IMMUNOMODULATORS” (priority 2021, published 2025):
Where a SMILES comes first, the peptide text is derived from it. Bridges are numbered along the chain shown (N, C = ends). [ ]: non-standard residue; d: D form. The star is where a group is joined. ξ: configuration not given here. Trp(βS-Me) = C[C@@H](c1c[nH]c2ccccc12)[C@H](N)C(=O)O; Ala(1H-tetrazol-5-yl) = N[C@@H](Cc1nnn[nH]1)C(=O)O; Phe(3-CF3) = N[C@@H](Cc1cccc(C(F)(F)F)c1)C(=O)O; Ala(morpholin-4-yl) = N[C@@H](CN1CCOCC1)C(=O)O; Phe(4-COOH) = N[C@@H](Cc1ccc(C(=O)O)cc1)C(=O)O; Bip = N[C@@H](Cc1ccc(-c2ccccc2)cc1)C(=O)O; Phe(3-Me) = Cc1cccc(C[C@H](N)C(=O)O)c1; Val(3-OH) = CC(C)(O)[C@H](N)C(=O)O; mTyr = N[C@@H](Cc1cccc(O)c1)C(=O)O; 3Pal = N[C@@H](Cc1cccnc1)C(=O)O; 4Pal = N[C@@H](Cc1ccncc1)C(=O)O; Cha = N[C@@H](CC1CCCCC1)C(=O)O; Cit = NC(=O)NCCC[C@H](N)C(=O)O; Ile(3ξ) = CCC(C)[C@H](N)C(=O)O; Thr(3ξ) = CC(O)[C@H](N)C(=O)O; Ahp(2) = CCCCC[C@H](N)C(=O)O; Carboxymethyl = O=C(O)C*; Orn = NCCC[C@H](N)C(=O)O; Pra = C#CC[C@H](N)C(=O)O; Dab = NCC[C@H](N)C(=O)O; Dap = NC[C@H](N)C(=O)O; ξPra = C#CCC(N)C(=O)O

Biological target: T1, human PD-1 / PD-L1-Ig binding on Jurkat cell line over-expressing human PD-1 (Jurkat-PD-1) (Homo sapiens, UniProt Q15116)
T1 construct: expressed in transfected cells; host or cells: Jurkat
T1 sequence (Q15116 25-288): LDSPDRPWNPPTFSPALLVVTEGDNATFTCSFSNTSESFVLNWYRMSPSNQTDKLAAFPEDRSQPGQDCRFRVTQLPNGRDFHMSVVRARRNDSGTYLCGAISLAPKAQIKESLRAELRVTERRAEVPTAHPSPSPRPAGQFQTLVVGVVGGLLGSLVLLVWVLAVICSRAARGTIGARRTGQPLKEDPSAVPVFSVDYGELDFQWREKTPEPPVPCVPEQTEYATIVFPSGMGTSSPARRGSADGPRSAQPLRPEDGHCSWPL
Assay: Jurkat-PD-1 Cell Binding High-Content Screening Assay (CBA)
Assay type: cell-based
Details: Jurkat HPD1_PDL1 IC50, Jurkat-PD-1 cells, PE-labeled PD-L1-Ig 20 nM final
Procedure, shortened: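 Cell-bound PE-labeled PD-L1-Ig (20 nM final, 1 h) measured by high-content imaging after fixation and Hoechst 33342 counterstain. Compound was applied first for 2 h at 37° C. to Jurkat cells over-expressing human PD-1 in DMEM with 10% FCS.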

Compound | IC50 [nM]
CC(C)C[C@@H]1NC(=O)[C@H](Cc2c[nH]c3ccccc23)NC(=O)[C@H](CC(=O)O)NC(=O)[C@H](Cc2ccc(OCC(=O)O)cc2)NC(=O)[C@H](CN)NC(=O)CSC[C@@H](C(=O)NCC(N)=O)NC(=O)[C@H](CO)NC(=O)[C@H](C(C)C)NC(=O)[C@H](CC2CCCCC2)NC(=O)[C@H](CC(N)=O)NC(=O)[C@@H](CC(C)C)NC(=O)[C@H](CCCN)NC(=O)[C@H](C(C)C)NC(=O)[C@H](Cc2ccc(-c3ccccc3)cc2)NC1=O [Compound 1336] ({CH2CO}-[Dap]Y(Carboxymethyl)DWL[Bip]V[Orn][dL]N[Cha]VSCG-NH2; thioether N-14) | 21.2

Same assay, conditions: Jurkat-PD-1 cells, PE-labeled PD-L1-Ig 20 nM final; read-out: Jurkat HPD1_PDL1 IC50

Compound | IC50 [nM]
Cc1cccc(C[C@@H]2NC(=O)[C@H](CC(=O)O)NC(=O)[C@H](Cc3ccc(OCC(=O)O)cc3)NC(=O)[C@H](Cc3cccnc3)NC(=O)CSC[C@@H](C(=O)N[C@@H](CCN)C(N)=O)NC(=O)[C@H](CCCN)NC(=O)[C@H](C(C)C)NC(=O)[C@H](CC3CCCCC3)NC(=O)[C@H](CCN)NC(=O)[C@@H](CC(C)C)NC(=O)[C@H](CCCN)NC(=O)[C@H](Cc3ccc(O)cc3)NC(=O)[C@H](Cc3ccc(-c4ccccc4)cc3)NC(=O)[C@H](Cc3ccc(O)cc3)NC2=O)c1 [Compound 2041] ({CH2CO}-[3Pal]Y(Carboxymethyl)D[Phe(3-Me)]Y[Bip]Y[Orn][dL][Dab][Cha]V[Orn]C[Dab]-NH2; thioether N-14) | 4.9
Cc1cccc(C[C@@H]2NC(=O)[C@H](Cc3nn[nH]n3)NC(=O)[C@H](Cc3ccc(OCC(=O)O)cc3)NC(=O)[C@H](CN)NC(=O)CSC[C@@H](C(=O)N[C@@H](C)C(N)=O)NC(=O)[C@H]([C@@H](C)O)NC(=O)[C@H](C(C)C)NC(=O)[C@H](CC3CCCCC3)NC(=O)[C@H](CCN)NC(=O)[C@@H](CC(C)C)NC(=O)[C@H](CCCN)NC(=O)[C@H](CCCNC(N)=O)NC(=O)[C@H](Cc3ccc(-c4ccccc4)cc3)NC(=O)[C@H](C(C)C)NC2=O)c1 [Compound 1327] ({CH2CO}-[Dap]Y(Carboxymethyl)[Ala(1H-tetrazol-5-yl)][Phe(3-Me)]V[Bip][Cit][Orn][dL][Dab][Cha]VTCA-NH2; thioether N-14) | 31.6
CCC(C)[C@@H]1NC(=O)[C@H](Cc2ccc(-c3ccccc3)cc2)NC(=O)[C@H](Cc2ccccc2)NC(=O)[C@H](Cc2c[nH]c3ccccc23)NC(=O)[C@H](CC(=O)O)NC(=O)[C@H](Cc2ccc(OCC(=O)O)cc2)NC(=O)[C@H](C(C)O)NC(=O)CSC[C@@H](C(=O)N[C@@H](CC(N)=O)C(=O)O)NC(=O)[C@H](CO)NC(=O)[C@H](C(C)C)NC(=O)[C@H](CC(C)C)NC(=O)[C@H](CCN)NC(=O)[C@@H](CC(C)C)NC(=O)[C@H](CCCN)NC1=O (stereo partly drawn) [Compound 2574] ({CH2CO}-[Thr(3ξ)]Y(Carboxymethyl)DWF[Bip][Ile(3ξ)][Orn][dL][Dab]LVSCN-OH; thioether N-14) | 132
C#CCC(NC(=O)[C@H](CCCN)NC(=O)[C@@H]1CSCC(=O)N[C@@H](Cc2ccncc2)C(=O)N[C@@H](Cc2ccc(OCC(=O)O)cc2)C(=O)N[C@@H](CC(=O)O)C(=O)N[C@@H](Cc2c[nH]c3ccccc23)C(=O)N[C@@H](C(C)C)C(=O)N[C@@H](Cc2ccc(-c3ccccc3)cc2)C(=O)N[C@@H]([C@@H](C)CC)C(=O)N[C@@H](CCCN)C(=O)N[C@H](CC(C)C)C(=O)N[C@@H](CCN)C(=O)N[C@@H](CC(C)C)C(=O)N[C@@H](C(C)C)C(=O)N[C@@H]([C@@H](C)O)C(=O)N1)C(N)=O (stereo partly drawn) [Compound 1766] ({CH2CO}-[4Pal]Y(Carboxymethyl)DWV[Bip]I[Orn][dL][Dab]LVTC[Orn][ξPra]-NH2; thioether N-14) | 31.4
CCCCC[C@@H]1NC(=O)[C@H](C(C)C)NC(=O)[C@H](Cc2ccccc2)NC(=O)[C@H](CC(=O)O)NC(=O)[C@H](CCCNC(=N)N)NC(=O)[C@H](Cc2ccc(-c3ccccc3)cc2)NC(=O)[C@H](C(C)C)NC(=O)[C@H](Cc2c[nH]c3ccccc23)NC(=O)[C@H](CC(=O)O)NC(=O)[C@H](Cc2ccc(O)cc2)NC(=O)[C@H](Cc2ccccc2)NC(=O)CSC[C@@H](C(=O)NCC(N)=O)NC(=O)[C@H](CO)NC(=O)[C@H](C(C)C)NC1=O [Compound 1003] ({CH2CO}-FYDWV[Bip]RDFV[Ahp(2)]VSCG-NH2; thioether N-14) | 614

Second part, the compound after the results:

IC50 [nM] | Compound
39.6 | C#CCC(NC(=O)[C@H](CCCN)NC(=O)[C@@H]1CSCC(=O)N[C@@H](Cc2ccncc2)C(=O)N[C@@H](Cc2ccc(OCC(=O)O)cc2)C(=O)N[C@@H](CC(=O)O)C(=O)N[C@@H](Cc2c[nH]c3ccccc23)C(=O)N[C@@H](C(C)C)C(=O)N[C@@H](Cc2ccc(-c3ccccc3)cc2)C(=O)N[C@@H]([C@@H](C)CC)C(=O)N[C@@H](CCCN)C(=O)N[C@H](CC(C)C)C(=O)N[C@@H](CCN)C(=O)N[C@@H](CC(C)C)C(=O)N[C@@H](C(C)C)C(=O)N[C@@H]([C@@H](C)O)C(=O)N1)C(N)=O (stereo partly drawn) [Compound 1760] ({CH2CO}-[4Pal]Y(Carboxymethyl)DWV[Bip]I[Orn][dL][Dab]LVTC[Orn][ξPra]-NH2; thioether N-14)
16.7 | CCNC(=O)[C@H](CCN)NC(=O)[C@@H]1CSCC(=O)N[C@@H](CN)C(=O)N[C@@H](Cc2ccc(OCC(=O)O)cc2)C(=O)N[C@@H](CC(=O)O)C(=O)N[C@@H](Cc2cccc(O)c2)C(=O)N[C@@H](C(C)C)C(=O)N[C@@H](Cc2ccc(-c3ccccc3)cc2)C(=O)N[C@@H](Cc2ccc(O)cc2)C(=O)N[C@@H](CCCN)C(=O)N[C@H](CC(C)C)C(=O)N[C@@H](CCN)C(=O)N[C@@H](CC2CCCCC2)C(=O)N[C@@H](C(C)C)C(=O)N[C@@H](CCCN)C(=O)N1 [Compound 2046] ({CH2CO}-[Dap]Y(Carboxymethyl)D[mTyr]V[Bip]Y[Orn][dL][Dab][Cha]V[Orn]C[Dab]-NHEt; thioether N-14)
25.2 | CC(C)C[C@H]1NC(=O)[C@H](CCCN)NC(=O)[C@H](Cc2ccc(C(=O)O)cc2)NC(=O)[C@H](Cc2ccc(-c3ccccc3)cc2)NC(=O)[C@H]([C@@H](C)c2c[nH]c3ccccc23)NC(=O)[C@H](Cc2cccc(C(F)(F)F)c2)NC(=O)[C@H](CC(=O)O)NC(=O)[C@H](Cc2ccc(C(=O)O)cc2)NC(=O)[C@H](CN2CCOCC2)NC(=O)CSC[C@@H](C(=O)N[C@@H](CCN)C(N)=O)NC(=O)[C@H](CCC(=O)O)NC(=O)[C@H](C(C)C)NC(=O)[C@H](CC2CCCCC2)NC(=O)[C@H](CCN)NC1=O [Example 2748] ({CH2CO}-[Ala(morpholin-4-yl)][Phe(4-COOH)]D[Phe(3-CF3)][Trp(βS-Me)][Bip][Phe(4-COOH)][Orn][dL][Dab][Cha]VEC[Dab]-NH2; thioether N-14)
12 | C#CC[C@H](NC(=O)[C@H](CCN)NC(=O)[C@@H]1CSCC(=O)N[C@@H](CCN)C(=O)N[C@@H](Cc2ccc(C(=O)O)cc2)C(=O)N[C@@H](CC(=O)O)C(=O)N[C@@H](Cc2cccc(C)c2)C(=O)N[C@@H](Cc2ccc(C(=O)O)cc2)C(=O)N[C@@H](Cc2ccc(-c3ccccc3)cc2)C(=O)N[C@@H](Cc2ccc(C(=O)O)cc2)C(=O)N[C@@H](CCCN)C(=O)N[C@H](CC(C)C)C(=O)N[C@@H](CCN)C(=O)N[C@@H](CC2CCCCC2)C(=O)N[C@@H](C(C)(C)O)C(=O)N[C@@H](CO)C(=O)N1)C(N)=O [Compound 1865] ({CH2CO}-[Dab][Phe(4-COOH)]D[Phe(3-Me)][Phe(4-COOH)][Bip][Phe(4-COOH)][Orn][dL][Dab][Cha][Val(3-OH)]SC[Dab][Pra]-NH2; thioether N-14)
